From paper PMC4492822 (EMBO Molecular Medicine, 2015) come the findings set out here.

Assay [1] deals with Ded1p (yeast homolog of DDX3) (Saccharomyces cerevisiae, UniProt P06634). The experiment in a line: RNA helicase (unwinding) assay. Format: biochemical. The note with it: Ded1p 80 nM, 100 μM ATP; 50, 100, 200 nM tested. Here is the method: The RNA helicase assay was performed as described earlier (Sengoku et al, [2006]) with a few modifications. Briefly, RNA oligomers R41 (unlabeled 41 nt) 5′-[…]-[…]-3′ and R13 (FAM-labeled 13 nt) 5′-[…]-3′ were annealed to form […] RNA duplexes and incubated with R13C (unlabeled 13-nt quencher RNA complementary to R13) 5′-[…]-3′, along with Ded1p protein (80 nM), 100 μM ATP, and […] RNasin (Promega, Madison, WI, USA) in reaction buffer containing 50 mM Tris, pH 7.8, 2 mM MgCl2, 3% glycerol, and 1 mM DTT for various times at room temperature. Reactions were stopped after 30-min incubation at room temperature with stop solution containing proteinase K (1 mg/ml) and SDS (0.6%). Reactions were loaded on acrylamide gels and bands visualized using a Typhoon scanner (GE Healthcare, Piscataway, NJ, USA).
Chain of Ded1p (yeast homolog of DDX3) (P06634 whole entry): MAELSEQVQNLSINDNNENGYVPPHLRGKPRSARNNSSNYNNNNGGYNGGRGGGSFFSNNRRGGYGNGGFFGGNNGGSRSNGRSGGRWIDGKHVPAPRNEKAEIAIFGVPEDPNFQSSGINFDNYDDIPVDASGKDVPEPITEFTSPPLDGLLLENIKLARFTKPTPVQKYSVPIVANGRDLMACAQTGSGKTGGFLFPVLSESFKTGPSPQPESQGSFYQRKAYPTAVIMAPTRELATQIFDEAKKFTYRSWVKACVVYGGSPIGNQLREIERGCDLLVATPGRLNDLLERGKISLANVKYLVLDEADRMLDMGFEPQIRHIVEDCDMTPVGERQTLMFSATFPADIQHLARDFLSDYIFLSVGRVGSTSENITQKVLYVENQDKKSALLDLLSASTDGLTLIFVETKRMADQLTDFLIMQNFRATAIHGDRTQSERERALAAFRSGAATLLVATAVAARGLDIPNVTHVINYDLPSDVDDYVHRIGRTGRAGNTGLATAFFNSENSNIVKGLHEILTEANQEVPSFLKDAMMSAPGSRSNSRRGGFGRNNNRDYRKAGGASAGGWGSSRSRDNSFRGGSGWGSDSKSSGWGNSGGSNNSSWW

For assay [2], the system named is Twist1/Kras^G12D lung tumors. In words: Twist1/KrasG12D lung tumor model, fractionated radiation (10 fractions of 3 Gy). Format: in vivo, mouse. The note with it: 3 weeks following treatment. Here is the method:
Inducible Twist1/Kras^G12D transgenic mice in the FVB/N inbred background were of the genotype: CCSP-rtTA/tetO-KrasG12D/Twist1-tetO-luc (Tran et al, [2012]). All the mice were weaned 3–4 weeks of age and then placed on dox at 4–6 weeks of age. Mice were treated with similar levels of tumor burden per micro-CT and were typically 20–30 weeks old. Mice were treated as in Fig6C and H. Each group consisted of mice, of which multiple index tumors were followed in time by micro-CT and quantified by a board-certified radiation oncologist (JZ) in a blinded fashion. Bi-dimensional measurements were made on tumors using serial examinations and tumor volumes calculated using the equation Volume = π/6 × 1.65 (length × width) × 3/2. Volumes were normalized to the starting volume, t = 0 before treatment. For 15-Gy SABR experiments, the breakdown of animal usage is (1) RT = 3 female mice, (2) RK-33 = 3 females and 1 male mice, (3) carboplatin = 3 male mice, (4) RT + carboplatin = 3 female mice, and (5) RT + RK-33 = 5 female mice. […]
The mice underwent micro-CT imaging by use of the Small Animal Radiation Research Platform (SARRP) irradiator described earlier (Wong et al, [2008]). […] Tumor volumes were quantified from the CT dataset with Pinnacle3 software v.8.1y (Philips Inc, Madison, WI) as described previously (Tran et al, [2011]; Zeng et al, [2013]). […]

The test system of assay [3] is A549 cells. The experiment in a line: Immunoblotting of cell cycle, apoptosis, MAPK and DNA repair proteins. The class given is cell-based, human. As to the method:
(§1) Cell lysate was prepared with TB buffer method. For immunoblotting, ~25 μg protein was loaded on 10% SDS–PAGE gels. […] The blots were developed with clarity Western ECL (Bio-Rad, Hercules, CA, USA) and imaged with G:BOX Chemi XR5 (Syngene, Frederick, MD, USA).
A general note: Immunoblotting shows a protein as a band on a membrane.

Assay [4] has as its system H1299 cells. The assay is described as above. The class given is cell-based. As to the method: as §1
In assay [5] the test system is TCF4 activity in H1299 cells. The experiment in a line: TCF reporter assay (TOP/FOP-FLASH). The class given is cell-based. Particulars: 0, 1, 2, and 3 μM; wild-type and β-catenin-overexpressing cells. As to the method: Transcriptional activity of TCF4 was assayed using the dual luciferase assay (Promega, Madison, WI, USA) according to the manufacturer's instructions. Briefly, 1.5 × 10^4 A549 or H1299 cells were transfected with 500 ng of TOP-FLASH and control FOP-FLASH constructs along with 50 ng of phRL Renilla constructs as transfection controls as well as with 500 ng β-catenin constructs when indicated. Cells were cultured for 24 h and then lysed in passive lysis buffer. Luminescence was detected using a luminometer (Berthold Sirius, Oak Ridge, TN, USA). Relative TCF4 promoter activity was calculated by dividing firefly luminescence by Renilla luminescence, and then normalized TOP-FLASH was divided by normalized FOP-FLASH, which was finally normalized to vector or DMSO control cells. All experiments were repeated three times, and differences were assessed by the paired t-test.
In general terms: In a reporter assay the amount or activity of a reporter protein is the signal.

Assay [6] deals with H1299-DR-GFP cells. In words: Homologous recombination reporter assay. Format: cell-based. As to the method:
NHEJ was assessed by the functional reporter system H1299-EJ, provided by E Dikomey. […] When these sites are incised by I-SceI, the artificial start codon is removed creating a DSB. Repair of this DSB by NHEJ restores GFP expression, so that cells capable for NHEJ can be identified by their GFP fluorescence intensity (Kriegs et al, [2010]). H1299.EJ cells were plated in a 6-well plate (1 × 10^5 cell/well) and treated with 4–6 μM RK-33. The following day, cells were transfected (in duplicates) with 1–2 μg of pSceI or pEGFP construct using TransIT-LT1 (Mirus, Madison, WI, USA) in serum-free media (Opti-MEM, Invitrogen, Carlsbad, CA, USA). Media was replaced after 4–6 h with complete media. Subsequently, cells were harvested by trypsinization, washed in PBS, and resuspended in 0.5 ml PBS. NHEJ activity was measured on a FACScan I instrument and analyzed on FlowJo software. Recombination frequency was calculated as ((% pSceI − % negative control) / % pEGFP). H1299-DR-GFP cells, provided by RG Bristow, were used to measure homologous recombination similarly as described above (Chan et al, [2008]).

Setting [7] is: 10 μM, especially evident 2 h after treatment.

In the case of “diimidazo[4,5-d:4′,5′-f]-[1,3]diazepine [RK-33]”, the “concentration from which unwinding activity is reduced (dose-dependent)” value in assay [1] was 50 nM. Moreover, the “decrease in tumor growth, RK-33 and radiation versus radiation” value in assay [2] is “not significant”. Also, the “DNA repair proteins ATR and XRCC4” value in assay [3] (6 μM for 4 h, then 5 Gy) is listed as “decrease of ATR but not XRCC4”; in assay [4] (6 μM for 4 h, then 5 Gy), “decrease of ATR but not XRCC4”. Also, the “phosphorylated ERK2 and ERK1” value in assay [3] (7.5 μM or 10 μM, 24 h) was “reduction of phosphorylated ERK2 and ERK1”; in assay [4] (7.5 μM or 10 μM, 24 h), “reduction of phosphorylated ERK2 and ERK1”. The caspase cleavage result in assay [3] (10 μM) is “cleavage of caspases 7 and 9”. In addition, the “cyclin D1 protein” value in assay [3] (setting [7]) and in assay [4] (setting [7]) was “substantial reduction of cyclin D1” throughout. For the same substance, in assay [5], the TCF activity entry was “reduced TCF activity significantly”. In assay [6], the HR activity entry is reported as “no changes in HR activity”.
